Where two headings read alike, the source gives them in different places.
Columns and labels:
RBL 2H3 cells = experiment: assay for degranulation of the RBL 2H3 cells (release of β-hexose-aminidase induced by anti-DNP IgE and DNP-BSA antigen); assay type: cell-based, rat; settings: for percentage inhibition of the degranulation reaction: added together with the antigen; for concentration able to reduce 50% of the cellular degranulation: RBL 2H3 cells, 0.5 µg/ml IgE, 0.05 µg/ml DNP-BSA; for IC50: read-out: concentration able to reduce 50% of the cellular degranulation
Description: The RBL 2H3 cell line, rat basophils that express the receptor with high affinity for the immunoglobulins of class E (FcεRl), is widely used for investigating allergic reactions, because in this cell line the chemical mediators of inflammation are released as a result of allergen specific-IgE-FcεRI binding.
Release of the enzyme β-hexose-aminidase, which is present together with histamine in the granules of mast cells and basophils, can be used as an index of cellular degranulation (Tanaka et al., 1991, Chem. Pharm. Bull, 39, 2072-2076; McCloskey et al., 1988, Proc. Natl. Acad. Sci., USA, 85, 7260-7264).
The activity of the enzyme β-hexose-aminidase, released by the stimulated RBL 2H3 cells, was determined by the method described by Yamanishi et al., 1995, Jour. Biotech. Biochem., 59 (7), 1272-1275, which envisages measurement of the enzymatic activity by measuring the absorbance of the product p-nitrophenol generated by the synthetic substrate p-nitrophenyl-N-acetyl-β-D-glucosamide. 1x10^5 RBL 2H3 cells, trypsinized from plates at confluence, were resuspended in a volume of 80 µl of the culture medium (MEM + 10% inactivated fetal bovine serum) and distributed in each well of the 96-well plates (Costar). After 24 hours, 20 µl of medium containing anti-2,4-dinitrophenol monoclonal IgEs (DNP, Sigma, Cat. No. D-8406) was added to each well.
The microplates were incubated at 37°C for one hour and then washed three times with 100 µl of HBS buffer solution (10 mM HEPES, 135 mM NaCl, 5 mM KCI, 1 mM CaCl2, 0.5 mM MgCl2, 5.6 mM glucose, 0.1 % BSA, pH 7.4). After the washings, 100 µl of HBS containing the 2,4-dinitrophenol antigen conjugated to BSA (Sigma, Cat. No. A-6661) was added. As a control, 100 µl of HBS containing 1% Triton X-100 was added to some wells to determine the total amount of enzyme contained in the cellular granules.
After further incubation at 37°C for two hours, 30 µl of cellular supernatant or of cellular lysate was transferred to a new microplate, to which 50 µl of sodium citrate buffer at pH 4.5, containing 4 mM p-nitrophenyl-N-acetyl-β-D-glucosaminide (Sigma, Cat. No. N9376), a specific substrate for the enzyme β-hexose-aminidase, had been added beforehand. After incubation for two hours at 37°C, the reaction was stopped by adding 100 µl of glycine solution 0.2 M, pH 10.7. The enzymatic activity was determined by measuring the absorbance at 405 nm with a Microplate Reader Model 3550 EIA (Bio-Rad).
In preliminary experiments the immunoglobulins E and the antigen were added at various concentrations in order to determine the optimum concentrations for induction of the reaction of enzymatic release. The conditions identified experimentally correspond to 0.5 µg/ml of IgE and 0.05 µg/ml of antigen DNP conjugated to BSA.
To verify the capacity of the peptides of formula IB and of comparative peptides for inhibiting the degranulation of the RBL 2H3 cells, the peptides were added in the assay together with the antigen at concentrations between 0.1 and 500 µg/ml.

[1] = system: female mice of the Balb/c strain; assay type: in vivo, mouse; settings: for dose producing 50% inhibition of the local allergic reaction: mouse, intraperitoneally; for Inhibition of skin reaction (%): 30 minutes before antigen
Description: Cutaneous passive anaphylaxis on the mouse ear was induced according to the procedure described by Inagaki et al., Int. Arch. Allergy Appl. Immunol. 1985, 78:113-117. Rat ascitic fluid containing specific IgEs against the ovalbumin antigen was injected in the ear of female mice of the Balb/c strain. Ascitic fluid at different dilutions (5-10-20 times in PBS) was applied by intradermal injections at a volume of 10 µl, permitting the IgEs present in the ascitic fluid to bind to the FcεRs of the local mast cells, sensitizing them. After 48 hours, 0.25 mg of ovalbumin and Evans Blue dye at a concentration of 1.8%, dissolved in 70 µl of PBS, were injected intravenously. After 30 minutes, the appearance, on the mouse ear, of stained areas in the dermis, with extent and intensity of staining proportional to the quantity of antigen-specific IgEs injected with the ascitic fluid, was observed. The experiment included a negative control, represented by the intradermal injection of 10 µl of PBS without ascitic fluid, and there was no corresponding appearance of staining. The mice were sacrificed and the ears were removed for extraction and measurement of the dye discharged in the skin reaction. Each ear was dissolved in 0.5 ml of 1 M KOH, incubating at 37°C for 16 hours. After incubation, 2 ml of a mixture of 0.6M phosphoric acid and acetone in the ratio 5:13 (v:v) was added. The sample was then stirred and filtered, and finally the amount of dye was determined with a spectrophotometer, taking readings at 620 nm. On the basis of the results obtained in the IgE-FcER linear binding assay, selecting as reference point the value of dilution of the ascitic fluid at which the most intense inflammatory reaction was observed, an assay of inhibition of the allergic reaction was performed using peptide IB and the comparative peptide. As described previously, intradermal injections of 10 µl of ascitic fluid, diluted 20 times in PBS, were applied to the ear lobe of a group of Balb/c mice, permitting the IgEs present in the ascitic fluid to bind to the FcεRs of the local mast cells, sensitizing them. After two days, various amounts of the peptides under investigation were dissolved in 100 µl of PBS and administered intraperitoneally to the sensitized mice. In particular, doses corresponding to 0.5 - 1 - 5 - 10 - 50 mg of peptide per kg of body weight of the mouse were used. 100 µl of PBS was injected as negative control. After 30 minutes the mice received the intravenous injection of the solution of ovalbumin and Evans Blue dye.

[2] = Concentration of Peptide 0.1 µg/ml
[3] = Concentration of Peptide 1 µg/ml
[4] = Concentration of Peptide 10 µg/ml
[5] = Concentration of Peptide 50 µg/ml
[6] = Concentration of Peptide 100 µg/ml
[7] = Concentration of Peptide 500 µg/ml

| IC50 (RBL 2H3 cells) | Molecule | percentage inhibition of the degranulation reaction (RBL 2H3 cells; [2]) | percentage inhibition of the degranulation reaction (RBL 2H3 cells; [3]) | percentage inhibition of the degranulation reaction (RBL 2H3 cells; [4]) | percentage inhibition of the degranulation reaction (RBL 2H3 cells; [5]) | percentage inhibition of the degranulation reaction (RBL 2H3 cells; [6]) | percentage inhibition of the degranulation reaction (RBL 2H3 cells; [7]) | concentration able to reduce 50% of the cellular degranulation (RBL 2H3 cells) | dose producing 50% inhibition of the local allergic reaction [1] | activity greater than the activity of the comparative peptide (RBL 2H3 cells; degranulation of RBL 2H3 cells) | Inhibition of skin reaction (%) ([1]; Dose of Peptide 0.5 mg/kg intraperitoneally) | Inhibition of skin reaction (%) ([1]; Dose of Peptide 1.0 mg/kg intraperitoneally) | Inhibition of skin reaction (%) ([1]; Dose of Peptide 5.0 mg/kg intraperitoneally) | Inhibition of skin reaction (%) ([1]; Dose of Peptide 10.0 mg/kg intraperitoneally) | Inhibition of skin reaction (%) ([1]; Dose of Peptide 50.0 mg/kg intraperitoneally) | activity greater than the activity of the comparative peptide ([1]; mouse ear passive cutaneous anaphylaxis) |
| --- | --- | --- | --- | --- | --- | --- | --- | --- | --- | --- | --- | --- | --- | --- | --- | --- |
| 4600 nM | C[C@H](O)[C@@H](NC(=O)[C@H](N)CCCNC(=N)N)C(=O)N[C@H](Cc1ccc(O)cc1)C(=O)NCCCC[C@H](NC(=O)[C@@H](Cc1ccc(O)cc1)NC(=O)[C@H](NC(=O)[C@H](N)CCCNC(=N)N)[C@H](C)O)C(=O)NCCCC[C@H](NC(=O)[C@H](CCCCNC(=O)[C@@H](Cc1ccc(O)cc1)NC(=O)[C@H](NC(=O)[C@H](N)CCCNC(=N)N)[C@H](C)O)NC(=O)[C@@H](Cc1ccc(O)cc1)NC(=O)[C@H](NC(=O)[C@H](N)CCCNC(=N)N)[C@H](C)O)C(=O)NCC(=O)O [Comparative peptide, (H-D-Arg-D-Thr-D-Tyr-)4-L-Lys2-L-Lys-Gly-OH, reference compound] | 0% | 40% | 49% | 59% | 62% | 70% | 10 µg/mL | about 7 mg/kg | – | – | – | – | – | – | – |
| ~300 nM | (H-L-Cys(p-MeOBzl)-D-Arg-D-Thr-D-Tyr)4-L-Lys2-L-Lys-L-Lys-OH [Peptide IB] | 20% | 76% | 80% | 82% | 85% | 90% | 1 µg/mL | 1 mg/kg | approx. 15 times | 10% | 50% | 65% | 71% | 85% | about 7 times |

— patent EP1997826A2, “Synthetic ligands for immunoglobulins and pharmaceutical compositions containing them” (Tecnogen S.p.A., priority 2007, dated 2008)
